Measured values from patent publication EP0035412A1, “Amidotetrazole compounds and processes for their preparation” (GLAXO GROUP LIMITED, priority 1980, dated 1981).

Legend:
Format in all cases: in vivo
[1] = system: rats with adjuvant arthritis; experiment: Freund adjuvant arthritis test (anti-inflammatory activity); conditions: arthritic score versus first score, suspended in gum acacia
Procedure: The anti-inflammatory activity was determined by the Freund adjuvant arthritis test (Pearson, C.M. Proc. Soc. Exp. Biol. Med 91, 95 1956) and analgesic activity was determined by applying an increasing pressure to the inflamed paw (Randall, L.O. Selitto, J.J., Arch. Int. Pharmacodyn, 111, 409 1957) and recording pain threshold.
The anti-inflammatory activity of the compounds was determined in rats with adjuvant arthritis (Pearson, C.M. Prod. Soc. Exp. Biol. Med., 91, 95, 1956) induced by intradermal,injection into the tail of 0.1 ml of a fine suspension of Mycobacterium butyricum in liquid paraffin (6 mg.ml^-1).
After 14 days, animals were chosen on the basis of their arthritic score and test compounds, suspended in gum acacia, were then orally administered once a day for 14 days. At the end of this period, animals were scored again and percentage inhibition versus first score was calculated. Comparisons with controls were performed by the Dunnett test. The following results were obtained for the compounds of the Examples: […]

[2] = Toxicity (oral LD50); conditions: in vivo, po; rat, orally
Procedure: (§1) The compounds are in general non-toxic at therapeutically active doses. For example, the compound of Example 1 has an LD50 value in the rat in excess of 3000 mg.kg ^-1 orally.

[3] = system: rat; experiment: Toxicity (oral LD50); conditions: result in words
Procedure: as §1

[4] = oral dose 50.0 mg.kg^-1 once a day for 14 days

Q: Which “% Inhibition” value ([1]; oral dose 6.25 mg.kg^-1 once a day for 14 days) does the source give for `COc1ccc2c(c1)c(CC(=O)Nc1nnnn1-c1ccccc1)c(C)n2C(=O)c1ccc(Cl)cc1` [Example 1, 1-Phenyl-5-[1-(4-chlorobenzoyl)-5-methoxy-2-methylindol-3-ylacetamido]tetrazole] here?
A: 59%

Q: What about the LD50 [2] of the same molecule?
A: > 3000 mg/kg

Q: And the therapeutic index [3]?
A: particularly advantageous

Q: For `COc1ccc2c(c1)c(CC(=O)Nc1nnnn1-c1ccc(Cl)c(Cl)c1)c(C)n2C(=O)c1ccc(Cl)cc1` [Example 2, 1-(3,4-Dichlorophenyl)-5-[1-(4-chlorobenzoyl)-5-methoxy-2-methylindol-3-ylacetamido]tetrazole], which “% Inhibition” value [1, 4] is on record?
A: 40.3%

Q: With `COc1ccc2c(c1)c(CC(=O)Nc1nnnn1-c1ccc([N+](=O)[O-])cc1)c(C)n2C(=O)c1ccc(Cl)cc1` [Example 3, 1-(4-Nitrophenyl)-5-[1-(4-chlorobenzoyl)-5-methoxy-2-methylindol-3-ylacetamido] tetrazole] as the molecule, how does the “% Inhibition” value ([1]; oral dose 10.0 mg.kg^-1 once a day for 14 days) read?
A: 47.7%

Q: With `COc1ccc2c(c1)c(CC(=O)Nc1nnnn1-c1ccc(N)cc1)c(C)n2C(=O)c1ccc(Cl)cc1` [Example 4] as the molecule, how does the “% Inhibition” value [1, 4] read?
A: 44.8%
